Assay [1] concerns hTNFα-induced neutrophil recruitment. The assay is described as follows: Neutrophil recruitment in mice, compound pre-mixed with hTNFα and injected i.p. The note with it: for effect of compound alone on neutrophil recruitment: compound only mice, no TNFα; for neutrophil recruitment versus TNFα in the absence of the compound: sample 1, ratio compound:TNFα 0.1:1, i.p.; for neutrophil recruitment versus TNFα in the absence of the compound / inhibition of neutrophil recruitment: 2 h. The assay is classed as in vivo, Balb/c mice. The method, then:
In separate studies, compounds of formula (1) and formula (2) were mixed with 20 μM solutions of TNFα dissolved in phosphate buffered saline (PBS) to a concentration of 2 μM, 20 μM and 200 μM. The ratio of each compound to TNFα was, therefore, 0.1:1 (sample 1), 1:1 (sample 2) and 10:1 (sample 3). […] This process separates protein bound compound and free compound. A control sample containing PBS only was processed in the same way to provide a vehicle control for the study. The concentration of eluted protein was determined using a Nanodrop (ND-1000). The TNFα:compound complexes were diluted in PBS to a concentration for injection of 0.03 μg/kg.
For the study, typically, each group contained 10 male Balb/c mice (Charles River) apart from an anti-human TNFα antibody positive control, which used a set of 5 mice.
Compound only mice were also included in the study to assess the effect of compound on neutrophil recruitment.
All mice were killed by cervical dislocation two hours post-injection of hTNFα (t=2 h) and the peritoneal cavity was lavaged with 3 mL of FACS buffer (500 mL PBS containing 2 g bovine serum albumin, 6 mL HEPES buffer and […]). Lavage fluid was aspirated and neutrophil numbers were assessed by staining cells with anti-Gr1 PE and anti-CD45 FITC by FACS as detailed below.
100 μL of lavage fluid from each sample was aliquoted into FACS tubes. A FACS cocktail was made up using anti-GR-1 PE (BD cat #553128 Lot #75542) at 1 in 39 dilution and anti-CD45 FITC (BD cat #553080 Lot #80807) at 1 in 19 dilution in FACS buffer. Fc block (BD Cat #553142 Lot #87810) was prepared 1 in 10 with FACS buffer and 10 μL added to each sample 5 minutes before adding the antibody cocktail. […] Samples were then left for 20 mins on ice. 1 mL of FACS Lyse solution (BD Cat #349202 Lot #29076, diluted 1:10 in dH2O) was added to each tube, mixed and left at room temperature for 5 minutes. 1 mL of FACS Buffer was then added to each tube and centrifuged at 400 g for 5 minutes. The FACS buffer was then carefully poured off and the tip of the tube dabbed on absorbent paper to leave the tube completely dry. Then […] of 1 in 10 Reference Bead solution (Sigma cat # P2477 Lot #116K1612) diluted in FACS buffer was added to each tube.
Samples were analysed using FACScalibur II and FloJo software.

In assay [2] the target is T1, TNFα (Homo sapiens, UniProt P01375). Briefly: Fluorescence probed thermal denaturation assay (Thermofluor) of TNFα. The assay is classed as binding. The note with it: TNFα + 5% DMSO + compound. Here is the method: A fluorescence probed thermal denaturation assay was performed to assess the effect of the compounds on the thermal stability of TNFα as a measure of compound binding. The reaction mix contained 5 μl of 30×SYPRO® Orange dye (Invitrogen) and 5 μl of TNFα (at 1.0 mg/ml), 37.5 μl PBS, pH 7.4 and 2.5 μl of compound (at 2 mM in DMSO). 10 μl of the mix was dispensed in quadruplicate into a 384 PCR optical well plate and was run on a 7900HT Fast Real-Time PCR System ([…]). PCR System heating device was set at 20° C. to 99° C. with a ramp rate of 1.1° C./min; fluorescence changes in the wells were monitored by a Charge-coupled device (CCD). The fluorescence intensity increase was plotted as a function of temperature and the Tm calculated as the midpoint of this denaturation curve (determined as the point of inflection) (Table 1).
T1 sequence (P01375 77-233 limits assumed): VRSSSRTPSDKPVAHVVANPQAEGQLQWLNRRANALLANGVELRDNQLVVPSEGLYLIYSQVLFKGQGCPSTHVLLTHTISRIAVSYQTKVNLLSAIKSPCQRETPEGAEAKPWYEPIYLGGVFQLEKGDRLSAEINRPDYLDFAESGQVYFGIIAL
Thermofluor measures the change of melting temperature (Tm) of TNFα due to compound either stabilising or disrupting the protein.
(Differential scanning fluorimetry follows unfolding on heating by fluorescence.)

The target in assay [3] is T1, TNFα. Briefly: L929 murine fibrosarcoma cell-killing (neutralisation) assay. The arrangement: host or cells: added to L929 murine fibrosarcoma cells (ECACC, 85011425). The assay is classed as cell-based, mouse. The note with it: L929 cells; read-out: IC50 (inhibition of cell killing activity of human TNFα). The method, then: The L929 neutralisation assays were carried out using the protocol disclosed in Baarsch M J J et al (Immunol Methods 1991; 140: 15-22) and Galloway C J et al J (Immunol Methods 1991; 140: 37-43).
Briefly, L929 cells (ECACC, 85011425) were cultured in culture medium consisting of RPMI 1640 (Gibco) containing 10% FCS (PAA), 2 mM glutamine (Gibco), 50 U/ml penicillin (Gibco) and 50 μg/ml streptomycin (Gibco). When they were subcultured, the cells were washed three times with 10 mL Dulbecco's phosphate-buffered saline without calcium and magnesium (Gibco) and 3 ml of trypsin-EDTA (Gibco) was then added for 2 minutes to remove the cells from the flask. Culture medium was added to neutralise the trypsin and the cells pipetted up and down to remove any clumps.
The L929 cells were split 1/2 or 1/3 the day before use and cultured for a further 24 hours. The flasks were then trypsinised as above and 2×10^4 cells in 100 μl were added per well of a 96 well flat-bottomed plate (Becton Dickinson). The plates were cultured for 24 hours before the assay was set up.
Serial dilutions were made from DMSO stocks of the compounds.
The assay medium was the same as culture medium but also contained 1 μg/ml actinomycin D (Sigma). The medium was flicked off the plates and the assay samples plus TNFα, standards and controls were added in 100 μl volumes in duplicate. Plates were incubated for a further 16 hours and then 10 μl per well of a 5 mg/ml methylthiazoletetrazolium (MTT; Sigma) solution in culture medium was added for a further 4 hours. The reaction was stopped by the addition of 100 μl of solubilisation buffer containing 20% sodium dodecyl sulphate (SDS, BDH) dissolved in 50% dimethyl formamide (DMF; BDH) and 50% deionised water.
After overnight incubation at 37° C. to allow the dye to dissolve, the plates were read on a Multiskan EX plate reader (Labsystem) at 570 nm with subtraction at 630 nm. Data were analysed using the Genesis software package.

What is called IC50 is the concentration at which inhibition is half-maximal. Turning to `Cc1ccc(C)c(Cn2c(C(O)c3ccncc3)nc3ccccc32)c1` (stereo not shown) [Compound (1), [1-(2,5-Dimethylbenzyl)-1H-benzimidazol-2-yl](pyridin-4-yl)methanol], in assay [1], the “effect of compound alone on neutrophil recruitment” value is recorded as “negligible effect” and the “neutrophil recruitment versus TNFα in the absence of the compound” value is listed as “not significantly different”. Also, the “inhibition of neutrophil recruitment” value in assay [1] (sample 2, ratio compound:TNFα 1:1, i.p.) turned out to be 86%. For the same compound, in assay [1] (sample 3, ratio compound:TNFα 10:1, i.p.), the “inhibition of neutrophil recruitment” value is reported as 85%. The “Tm difference (=(TNF + cpd) − (TNF + DMSO))” value on TNFα [2] is reported as 11.8. The concentration for half-maximal inhibition (IC50) on TNFα [3] is 306 nM.

Consider `Cc1ccc(C)c(Cn2c(C(O)c3ccncc3)nc3ccc(-c4cnn(C)c4)cc32)c1` (stereo not shown) [Compound (2), [1-(2,5-Dimethylbenzyl)-6-(1-methyl-1H-pyrazol-4-yl)-1H-benzimidazol-2-yl](pyridin-4-yl)methanol], for which, in assay [1], the “effect of compound alone on neutrophil recruitment” value was “negligible effect” and the “neutrophil recruitment versus TNFα in the absence of the compound” value was “not significantly different”. For the same compound, the “Tm difference (=(TNF + cpd) − (TNF + DMSO))” value on TNFα [2] came to 17.1. The IC50 at TNFα [3] amounted to 125 nM.

Values taken from patent publication US10705094B2, “TNF receptor signaling modulator assay” (UCB Biopharma SRL, priority 2015, dated 2020).
